Consider six compounds from article PMC11822712, “Improving the Activity and Selectivity of a Scorpion-Derived Peptide, A3a, against Acinetobacter baumannii through Rational Design” (ACS Omega, 2025).

Converted amounts (≈) assume the structure as drawn. Where two headings read alike, the source gives them in different places. Positions of bridges follow the written chain, without caps; N, C: chain ends. Non-standard residues stand in square brackets, D forms with d. Residues, ends and D or L forms follow the SMILES beside them. No end group written: not given here. *: point of attachment. X1 = CC[C@H](C)CCCCC(=O)*; Dab = NCC[C@H](N)C(=O)O

One data set has as its system E. coli ATCC 25922. Kind of data set: microbe, parasite or virus in culture. The class given is cell-based, Escherichia coli. The settings on record: cation-adjusted MHB, OD600.
Data set [1] concerns K. pneumoniae ATCC BAA-1705. Put plainly: microbe, parasite or virus in culture. The class given is cell-based, Klebsiella pneumoniae.
In a further data set the test system is P. aeruginosa ATCC 27853. Put plainly: microbe, parasite or virus in culture. Format: cell-based, Pseudomonas aeruginosa. To be noted: cation-adjusted MHB, OD600.
Data set [2] has as its system S. aureus (MSSA) ATCC 25923. Kind of data set: microbe, parasite or virus in culture. The class given is cell-based, Staphylococcus aureus. To be noted: cation-adjusted MHB, OD600.
Data set [3] concerns A. baumannii ATCC 19606. Kind of data set: microbe, parasite or virus in culture. To be noted: cation-adjusted MHB, OD600. Format: cell-based, Acinetobacter baumannii.
The test system of a further data set is E. cloacae ATCC 700323. Kind of data set: microbe, parasite or virus in culture. The method, then:
Antimicrobial activity was determined against a panel of ESKAPE pathogens. […] Bacterial colonies were picked and cultured in cation-adjusted MHB at 37 °C with 180 rpm shaking. Cultures were back-diluted to reach a starting OD600 of 0.1 and then diluted 100-fold to approximately 1 × 10^6 CFU/mL.

Another data set concerns HaCat cell. The settings on record: read-out: IC50 of HaCat cell viability; cited from earlier work. The procedure: Previously, we amidated the C-terminus of A3 to improve its activity against Gram-negative bacteria.[14] A3, the amidated analogue A3a, and the parent peptide AamAP1 were evaluated for antibacterial activity against a panel of ESKAPE pathogens.
For a further data set, the system named is erythrocytes. To be noted: 40 μM ref 13; cited from earlier work.
For data set [4], the system named is A. baumannii ATCC 19606. Kind of data set: Killing kinetics (CFU, Miles Misra method). The class given is cell-based, Acinetobacter baumannii. The settings on record: 1×, 4× and 8× MIC, A3a tested at the same concentration as A3a[R7K] (Figure 3 legend). The method, then: Colistin (8 μg/mL) was used as a positive control. […] Following exposure, 10 μL was used from the individual wells to determine the CFUs with the Miles Misra method.[57] The limit of detection for this method was 1000 CFUs. This was done at 30 min and 2, 6, and 24 h.

The test system of data set [5] is A. baumannii ATCC 19606. Put plainly: Membrane permeabilization, SYTOX Green assay. To be noted: SYTOX Green fluorescence, 1× MIC, 0.5 and 2 h exposure; melittin 8 μM positive control; three biological repeats. The class given is cell-based, Acinetobacter baumannii. The procedure: For membrane permeabilization studies, A. baumannii ATCC 19606 cells were evaluated after exposure to each peptide by measuring fluorescence. The SYTOX Green assay was undertaken according to Zeng et al.,[58] with some modifications. […] Melittin (8 μM) was used as the positive control. The fluorescence was measured every 2 min at excitation and emission wavelengths of 485 and 535 nm, respectively (Spectramax, Multimode detection platform, Molecular Devices, Austria).

The mark [6] stands for this setting: approx. 1 × 10^6 CFU/mL added 1:1, 20 h, MIC = lowest concentration with growth <0.1 above background, > = no activity at highest concentration tested.
Where [7] appears, read: cation-adjusted MHB, approx. 1 × 10^6 CFU/mL added 1:1, 20 h, OD600, MIC = lowest concentration with growth <0.1 above background, > = no activity at highest concentration tested.
Setting [8] is: same test as μg/mL value, 20 h, read-out: MIC (value in brackets).
[9] abbreviates: same test as μg/mL value, cation-adjusted MHB, 20 h, OD600.

Consider `CNC(C)C1CCC(N)C(OC2C(N)CC(N)C(OC3OCC(C)(O)C(NC)C3O)C2O)O1` (stereo not drawn) [gentamicin], for which the MIC is 1 µM with E. coli ATCC 25922 (Escherichia coli, ATCC25922, same test as μg/mL value, 20 h, read-out: MIC (value in brackets)); 0.5 µg/mL in the data set on E. coli ATCC 25922 (setting [6]); 4 µM in data set [1] (Klebsiella pneumoniae, ATCCBAA1705, 20 h, read-out: MIC (value in brackets)); 2 µg/mL in data set [1] (setting [7]); 8 µM in the data set on P. aeruginosa ATCC 27853 (Pseudomonas aeruginosa, ATCC27853, same test as μg/mL value, 20 h, read-out: MIC (value in brackets)); 4 µg/mL in the data set with P. aeruginosa ATCC 27853 (setting [6]). Also, the MIC was 1 µM in data set [2] (Staphylococcus aureus, same test as μg/mL value, 20 h, read-out: MIC (value in brackets)); 0.5 µg/mL in [2] (setting [6]); 67 µM with A. baumannii ATCC 19606 [3] (Acinetobacter baumannii, ATCC19606, same test as μg/mL value, 20 h, read-out: MIC (value in brackets)); 32 µg/mL against A. baumannii ATCC 19606 [3] (setting [6]); 4 µM with E. cloacae ATCC 700323 (Enterobacter cloacae, ATCC700323, 20 h, read-out: MIC (value in brackets)); 2 µg/mL in the data set with E. cloacae ATCC 700323 (cation-adjusted MHB, approx. 1 × 10^6 CFU/mL added 1:1, 20 h, OD600, […], > = no activity at highest concentration tested).
With `CC[C@H](C)CCCCC(=O)N[C@@H](CCN)C(=O)N[C@H](C(=O)N[C@@H](CCN)C(=O)N[C@H]1CCNC(=O)[C@H]([C@@H](C)O)NC(=O)[C@H](CCN)NC(=O)[C@H](CCN)NC(=O)[C@H](CC(C)C)NC(=O)[C@@H](Cc2ccccc2)NC(=O)[C@H](CCN)NC1=O)[C@@H](C)O` [polymyxin B] (X1-[Dab]T[Dab][Dab][Dab][dF]L[Dab][Dab]T; lactam 4-C (inferred); N-terminus assumed), the MIC in the data set with E. coli ATCC 25922 (setting [6]) was 0.5 µg/mL; with E. coli ATCC 25922 (setting [8]) it was 0.4 µM; in data set [1] (setting [7]) it was 0.5 µg/mL; with P. aeruginosa ATCC 27853 (setting [6]), 2 µg/mL; in the data set on P. aeruginosa ATCC 27853 (setting [8]), 1.5 µM; in [2] (setting [6]) it was above 32 µg/mL. Moreover, the results for the MIC in the data set on A. baumannii ATCC 19606 [3] (setting [6]), in the data set on A. baumannii ATCC 19606 [3] (setting [8]) and in the data set with E. cloacae ATCC 700323 (setting [7]) were 1 µg/mL, 0.76 µM and 0.25 µg/mL, respectively. The “MIC (value in brackets)” value in [1] (setting [9]) was determined as 0.4 µM (≈ 0.481 µg/mL); in the data set with E. cloacae ATCC 700323 (setting [9]), 0.19 µM (≈ 0.229 µg/mL).
Regarding FLFSLIRKAIGGLISAFK [A3], the IC50 – broadly, the concentration that gives 50% inhibition – with HaCat cell is 59.9 µM. For the same compound, in the data set with erythrocytes, the hemolysis is listed as 36.1%.
For the compound FLFSLRKAGGLISAFK-NH2 [A3a[I(6,10)-del]], the MIC (against E. coli ATCC 25922 (setting [6]); in data set [1] (setting [7]); against P. aeruginosa ATCC 27853 (setting [6]); in [2] (setting [6]); with A. baumannii ATCC 19606 [3] (setting [6]); in the data set on E. cloacae ATCC 700323 (setting [7])) was above 128 µg/mL each time.
colistin: the “regrowth after 24 h in killing kinetics” value in the data set on A. baumannii ATCC 19606 [4] was “regrowth at all of the concentrations tested”.
With melittin, in the data set with A. baumannii ATCC 19606 [5], the membrane permeabilization entry is reported as “rapid membrane permeabilization”.
